Measured values: patent publication US20240368159A1, “HPK1 DEGRADERS, COMPOSITIONS COMPRISING THE HPK1 DEGRADER, AND METHODS OF USING THE SAME” (BIOFRONT LTD, priority 2021, published 2024)

Tests used:
HPK1 p-SLP-76 = HPK1 p-SLP-76 inhibition assay in human PBMC (HTRF); type: cell-based; conditions: 6 h compound, anti-CD3 stimulation 20 min
Description: Human PBMC were purchased from OriCells (FPB004F-C). Before compound treatment, PBMC were starved in PRMI-1640 medium supplemented with 0.5% FBS overnight. The cell density was adjusted to 1*10^7 cells/mL in assay medium (RPMI-1640 no phenol red with 0.5% FBS) and 16 μL cell suspension was transferred per well to a 384-well plate (Corning #3765). 6× solution of test compound was prepared in assay medium and 4 μL was added per well to the 384-well plate. The plate was then incubated at 37° C., 5% CO2 for 6 h. PBMC in 384-well plate were stimulated with anti-CD3 (BD Biosciences #555329, final conc. is 10 ug/mL) for 20 min at 37° C., 5% CO2 by adding 4 μL 6× antibody solution per well. Phospho-SLP76 HTRF kit was purchased from Cisbio (63ADK076PEH). 8 μL 4× Lysis Buffer was added to 384-well plate after anti-CD3 stimulation. The plate was centrifuged at 1,000 rpm for 1 min, shaken at 250 rpm for 60 min and centrifuged again at 1,000 rpm for 5 min. Afterwards the cell lysates were transferred to the assay plate (Greiner #784075) with 16 μL per well. 4 μL detection antibody mix per well prepared in Detection Buffer was added to the assay plate, followed by centrifugation at 1,000 rpm for 1 min and incubation at 25° C. overnight.

HPK1 protein [1] = molecular target: T1, HPK1 protein (Homo sapiens, UniProt Q92918); experiment: HPK1 enzyme inhibition assay (ADP-Glo); type: biochemical; conditions: MBP substrate, ATP, ADP-Glo readout
T1 construct: purchased Signal Chem M23-11G-10
T1 sequence (Q92918 1-346 limits assumed): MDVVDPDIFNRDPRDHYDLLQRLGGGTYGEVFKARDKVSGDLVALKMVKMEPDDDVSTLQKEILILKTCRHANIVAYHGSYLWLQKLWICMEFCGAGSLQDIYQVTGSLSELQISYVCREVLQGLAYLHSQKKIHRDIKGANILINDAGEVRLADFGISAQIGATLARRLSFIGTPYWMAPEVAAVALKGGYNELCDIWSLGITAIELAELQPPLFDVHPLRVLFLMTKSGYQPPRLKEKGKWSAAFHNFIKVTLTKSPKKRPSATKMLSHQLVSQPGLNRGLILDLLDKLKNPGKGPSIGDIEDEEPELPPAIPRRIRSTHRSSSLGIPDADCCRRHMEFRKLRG
Description: The compound was dissolved in 100% DMSO at the concentration of 10 mM. The HPK1 protein was purchased from Signal Chem (M23-11G-10). 2.5 μL per well of 2×HPK1 protein was added to assay plate containing the test compound, centrifuged at 1500 rpm for 1 minute, and then incubated at 25° C. for 60 minutes. MBP protein was purchased from Signal Chem (M42-51N) and ATP was purchased from Promega (V9102). The two were added 2.5 μL per well mixture of 2×MBP (0.2 ug/ul) and ATP (20 μM), centrifuged at 1500 rpm for 1 minute, then incubated at 25° C. for 60 minutes. Then added 5 μL of ADP-Glo from Promega (V9102) to the assay plate and depleted the unconsumed ATP for 60 minutes. Then centrifuged at 1500 rpm for 1 minute and incubated at 25° C. for 60 minutes. Finally, 10 μL of the kinase assay reagent from Promega (V9102) was added to the assay plate to convert ADP to ATP, centrifuged at 1500 rpm for 1 minute, incubate at 25° C. for 40 minutes. After 40 minutes incubation, the […] was determined. Based on the results, the IC50 value of the compound was calculated.

HPK1 protein [2] = molecular target: T2, HPK1 protein (Mus musculus, UniProt P70218); experiment: HPK1 protein degradation in mouse pan T cell (western blot); type: cell-based; conditions: 18 h incubation
T2 construct: the CD3+ T cell population was isolated from spleenocytes of mice; endogenous in cells; host or cells: primary mouse splenic CD3+ (pan) T cells
T2 sequence (P70218 1-827): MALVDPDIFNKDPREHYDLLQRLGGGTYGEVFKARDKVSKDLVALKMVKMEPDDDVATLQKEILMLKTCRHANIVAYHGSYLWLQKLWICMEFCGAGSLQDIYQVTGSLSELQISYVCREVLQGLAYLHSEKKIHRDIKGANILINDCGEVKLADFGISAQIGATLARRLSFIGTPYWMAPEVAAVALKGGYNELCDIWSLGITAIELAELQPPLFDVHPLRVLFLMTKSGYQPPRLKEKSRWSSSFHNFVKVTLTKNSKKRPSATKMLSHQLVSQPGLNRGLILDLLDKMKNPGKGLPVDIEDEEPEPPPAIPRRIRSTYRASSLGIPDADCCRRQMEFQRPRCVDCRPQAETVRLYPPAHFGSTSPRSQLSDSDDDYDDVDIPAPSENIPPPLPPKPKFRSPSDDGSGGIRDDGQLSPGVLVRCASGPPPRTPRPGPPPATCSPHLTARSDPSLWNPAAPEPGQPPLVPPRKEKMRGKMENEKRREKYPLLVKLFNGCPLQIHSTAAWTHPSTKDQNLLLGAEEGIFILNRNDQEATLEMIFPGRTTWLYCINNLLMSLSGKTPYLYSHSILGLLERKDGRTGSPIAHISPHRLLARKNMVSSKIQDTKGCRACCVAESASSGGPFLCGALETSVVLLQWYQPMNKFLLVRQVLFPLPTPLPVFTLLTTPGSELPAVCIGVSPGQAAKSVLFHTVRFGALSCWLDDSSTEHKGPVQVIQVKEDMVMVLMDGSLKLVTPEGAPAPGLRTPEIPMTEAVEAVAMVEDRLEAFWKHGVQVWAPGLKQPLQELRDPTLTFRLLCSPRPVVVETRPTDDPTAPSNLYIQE
Description: HPK1 protein degradation in mouse pan T cell: the CD3+ T cell population was isolated from spleenocytes of mice by using Pan T cell isolation kit from Miltenyi Biotec (130-095-130) following manufacture's instruction. The isolated T cells were then incubated with a variety of concentrations of compound. After incubation for 18 h, the cells were collected and lysed. The protein concentration was determined by BCA protein assay kit from Thermo (23227). The HPK1 protein level was determined by western blots, using anti-human HPK1 polyclonal antibody from CST (4472). Proteins were loaded into each well of the pre-casting gels and subjected to electrophoretic separation by SDS-PAGE. The protein resolved by SDS-PAGE were transferred to PVDF, blocked by 5% skim milk and probed with anti-human HPK1 antibody or β-actin antibody from CST (3700S), using following standard western blotting procedure.

Structure (SMILES)	IC50 (HPK1 p-SLP-76)	IC50 (HPK1 protein [1])	Dmax (HPK1 protein [2])
CCc1c[nH]c2ncc(-c3cccc(N4CCN(C(=O)CCCCCCCOc5cccc6c5CN(C5CCC(=O)NC5=O)C6=O)CC4=O)c3)c(Cl)c12 (centres unmarked) [Example 1]	3000 to 10000 nM	10 to 100 nM	
CCc1c[nH]c2ncc(-c3cccc(N4CCN(CCC(=O)N5CCN(c6ccc7c(c6)C(=O)N(C6CCC(=O)NC6=O)C7=O)CC5)CC4=O)c3)c(Cl)c12 (centres unmarked) [Example 24]		10 to 100 nM	91%
CCc1c[nH]c2ncc(-c3cccc(N4CCN(CCCN5CCN(c6ccc7c(c6)C(=O)N(C6CCC(=O)NC6=O)C7=O)CC5)CC4=O)c3)c(Cl)c12 (centres unmarked) [Example 27]		10 to 100 nM	95%
O=C1CCC(N2Cc3cc(N4CCC(OCC(=O)N5CCN(c6cccc(-c7cnc8[nH]cc(C#Cc9ccccn9)c8c7Cl)c6)C(=O)C5)CC4)ccc3C2=O)C(=O)N1 (centres unmarked) [Example 57, 3-(5-(4-(2-(4-(3-(4-chloro-3-(pyridin-2-ylethynyl)-1H-pyrrolo[2,3-b]pyridin-5-yl)phenyl)-3-oxopiperazin-1-yl)-2-oxoethoxy)piperidin-1-yl)-1-oxoisoindolin-2-yl)piperidine-2,6-dione]		100 to 1000 nM	0%
CCc1c[nH]c2ncc(-c3cccc(N4CCN(CCCCNc5ccc6c(c5)C(=O)N(C5CCC(=O)NC5=O)C6=O)CC4=O)c3)c(Cl)c12 (centres unmarked) [Example 59]		10 to 100 nM	60%
O=C1CCC(N2Cc3cc(F)c(N4CCC(CCN5CCN(c6cccc(-c7cnc8[nH]cc(C9CC9)c8c7Cl)c6)C(=O)C5)CC4)cc3C2=O)C(=O)N1 (centres unmarked) [Example 61]		100 to 1000 nM	50%
O=C1CCC(c2ccc(N3CCN(CCCN4CCN(c5cccc(-c6cnc7[nH]cc(C8CC8)c7c6Cl)c5)C(=O)C4)CC3)cc2)C(=O)N1 (centres unmarked) [Example 75, 3-(4-(4-(3-(4-(3-(4-chloro-3-cyclopropyl-1H-pyrrolo[2,3-b]pyridin-5-yl)phenyl)-3-oxopiperazin-1-yl)propyl)piperazin-1-yl)phenyl)piperidine-2,6-dione]		≤ 10 nM	55%
CCc1c[nH]c2ncc(-c3cccc(N4CCN(Cc5ccc6c(c5)C(=O)N(C5CCC(=O)NC5=O)C6=O)CC4=O)c3)c(Cl)c12 (centres unmarked) [Example 90, 5-((4-(3-(4-chloro-3-ethyl-1H-pyrrolo[2,3-b]pyridin-5-yl)phenyl)-3-oxopiperazin-1-yl)methyl)-2-(2,6-dioxopiperidin-3-yl)isoindoline-1,3-dione]		10 to 100 nM	
CCc1c[nH]c2ncc(-c3cccc(N4CCN(CCc5ccc6c(c5)C(=O)N(C5CCC(=O)NC5=O)C6=O)CC4=O)c3)c(Cl)c12 (centres unmarked) [Example 97, 5-(2-(4-(3-(4-chloro-3-ethyl-1H-pyrrolo[2,3-b]pyridin-5-yl)phenyl)-3-oxopiperazin-1-yl)ethyl)-2-(2,6-dioxopiperidin-3-yl)isoindoline-1,3-dione]		≤ 10 nM	
O=C1CCC(N2C(=O)c3ccc(CCN4CCC(OC(=O)N5CCN(c6cccc(-c7cnc8[nH]cc(C9CC9)c8c7Cl)c6)C(=O)C5)CC4)cc3C2=O)C(=O)N1 (centres unmarked) [Example 98, 1-(2-(2-(2,6-dioxopiperidin-3-yl)-1,3-dioxoisoindolin-5-yl)ethyl)piperidin-4-yl 4-(3-(4-chloro-3-cyclopropyl-1H-pyrrolo[2,3-b]pyridin-5-yl)phenyl)-3-oxopiperazine-1-carboxylate]		10 to 100 nM	

Next, values leading:

IC50 (HPK1 p-SLP-76)	IC50 (HPK1 protein [1])	Dmax (HPK1 protein [2])	Structure (SMILES)
	10 to 100 nM	80%	CCc1c[nH]c2ncc(-c3cccc(N4CCN(CC(=O)N5CCN(c6cc7c(cc6F)C(=O)N(C6CCC(=O)NC6=O)C7=O)CC5)CC4=O)c3)c(Cl)c12 (centres unmarked) [Example 29, 5-(4-(2-(4-(3-(4-chloro-3-ethyl-1H-pyrrolo[2,3-b]pyridin-5-yl)phenyl)-3-oxopiperazin-1-yl)acetyl)piperazin-1-yl)-2-(2,6-dioxopiperidin-3-yl)-6-fluoroisoindoline-1,3-dione]
	10 to 100 nM	60%	CCc1c[nH]c2ncc(-c3cccc(N4CCN(CCOCCN5CCN(c6cc7c(cc6F)C(=O)N(C6CCC(=O)NC6=O)C7=O)CC5)CC4=O)c3)c(Cl)c12 (centres unmarked) [Example 33]
	10 to 100 nM	95%	O=C1CCC(N2Cc3cc(N4CCC(CCN5CCN(c6cccc(-c7cnc8[nH]cc(C9CC9)c8c7Cl)c6)C(=O)C5)CC4)c(F)cc3C2=O)C(=O)N1 (centres unmarked) [Example 62, 3-(5-(4-(2-(4-(3-(4-chloro-3-cyclopropyl-1H-pyrrolo[2,3-b]pyridin-5-yl)phenyl)-3-oxopiperazin-1-yl)ethyl)piperidin-1-yl)-6-fluoro-1-oxoisoindolin-2-yl)piperidine-2,6-dione]
	10 to 100 nM		CCc1c[nH]c2ncc(-c3cccc(N4CCN(CC5CN(c6ccc7c(c6)C(=O)N(C6CCC(=O)NC6=O)C7=O)C5)CC4=O)c3)c(Cl)c12 (centres unmarked) [Example 89]
	10 to 100 nM		O=C1CCC(N2C(=O)c3ccc(CN4CCC(OC(=O)N5CCN(c6cccc(-c7cnc8[nH]cc(C9CC9)c8c7Cl)c6)C(=O)C5)CC4)cc3C2=O)C(=O)N1 (centres unmarked) [Example 94, 1-((2-(2,6-dioxopiperidin-3-yl)-1,3-dioxoisoindolin-5-yl)methyl)piperidin-4-yl 4-(3-(4-chloro-3-cyclopropyl-1H-pyrrolo[2,3-b]pyridin-5-yl)phenyl)-3-oxopiperazine-1-carboxylate]
	≤ 10 nM		O=C1CCN(c2cnc3cc(C4CCN(CCCN5CCN(c6cccc(-c7cnc8[nH]cc(C9CC9)c8c7Cl)c6)C(=O)C5)CC4)ccn23)C(=O)N1 [Example 96, 1-(7-(1-(3-(4-(3-(4-chloro-3-cyclopropyl-1H-pyrrolo[2,3-b]pyridin-5-yl)phenyl)-3-oxopiperazin-1-yl)propyl)piperidin-4-yl)imidazo[1,2-a]pyridin-3-yl)dihydro pyrimidine-2,4 (1H,3H)-dione]
